Experimental data as given in patent publication US20180214428A1, “3-(1H-INDOL-2-YL)-1H-PYRAZOLO[3,4-B]PYRIDINES AND THERAPEUTIC USES THEREOF” (Samumed, LLC, priority 2015, published 2018).

Assays:
SW480 colon cancer cells = assay: Cell viability assay (CellTiter-Blue) in SW480 colon cancer cells; format: cell-based, human; conditions: for EC50: four days, CellTiter-Blue; for inhibition at 10 µM: given for EC50 of >10 μM, read-out: percent inhibition at 10 μM
How it was run: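 SW480 cells (~2×10^3 per well) were exposed to compound for four days at 37 °C/5% CO2, using 8-point 1:3 dilutions from 10 μM to 0.0045 μM in duplicate. Viability was read by resazurin reduction (CellTiter-Blue, ~3 h, Ex 560/Em 590 nm). EC50 came from non-linear regression; above 10 μM, percent inhibition at 10 μM is given.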

IL-6 = IL-6 inhibition in LPS-stimulated THP-1 monocytes (HTRF); format: cell-based, human; conditions: THP-1 cells; for EC50: 500 ng/mL LPS, 22 h, HTRF IL-6 readout, 10-point dose-response from 10 μM; for inhibition at 10 µM: LPS stimulated, given only where EC50 >10 μM, top concentration 10 μM, read-out: percentage in parentheses beside EC50 >10 (IL-6 inhibition)
How it was run: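 THP-1 cells serum-reduced (1% FBS, 24 h), then 5000 cells/well preincubated 2 h with compound (10-point 1:3 series from 10 μM, 0.1% DMSO) before 500 ng/mL LPS for 22 h at 37 °C. Secreted IL-6 quantified by HTRF 665/620 ratio; DMSO-normalised duplicates fitted to four-parameter EC50; above 10 μM, % inhibition at 10 μM given.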

[1] = tested on: primary human fibroblasts derived from IPF patients (LL29 cells); assay: Inhibition of the fibrotic process: αSMA staining in TGF-β1 treated LL29 fibroblasts; format: cell-based; conditions: for EC50: TGF-β1 20 ng/mL, 4 days, % αSMA positive cells; for inhibition at 10 µM: read-out: percent inhibition at 10 μM
How it was run: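 IPF patient-derived LL29 fibroblasts in 1% FBS medium got compound (11-point, 10 μM to 1.87 nM, 0.1% DMSO) plus TGF-β1 20 ng/mL, 4 days at 37° C. αSMA-positive live cells (SYTOX-excluded) were imaged, normalized to TGF-β1 controls and fitted for EC50; % inhibition at 10 μM given when EC50 >10 μM.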

[2] = Homo sapiens, Fibroblast, at 10 μM, given for EC50 of >10 μM, TGF-β1, αSMA

SMILES	EC50 (SW480 colon cancer cells; Homo sapiens, 96 h) [nM]	inhibition at 10 µM (SW480 colon cancer cells; Homo sapiens) [%]	EC50 (IL-6; Homo sapiens) [nM]	EC50 ([1]; Homo sapiens, Fibroblast, 96 h) [nM]	inhibition at 10 µM (IL-6; Homo sapiens) [%]	inhibition at 10 µM [1, 2] [%]	EC50 (SW480 colon cancer cells) [nM]	EC50 (IL-6) [nM]	EC50 [1] [nM]	percent inhibition at 10 μM ([1]; at 10 μM, given for EC50 of >10 μM, TGF-β1, αSMA) [%]
c1cncc(-c2cnc3[nH]nc(-c4cc5ccccc5[nH]4)c3c2)c1 [Compound 231, 3-(1H-Indol-2-yl)-5-(pyridin-3-yl)-1H-pyrazolo[3,4-b]pyridine]	> 10000	9.1	19	8690						
CC(C)CC(=O)Nc1cncc(-c2cnc3[nH]nc(-c4cc5c(N6CCN(C)CC6)cccc5[nH]4)c3c2)c1 [Compound 202, 3-Methyl-N-(5-(3-(4-(4-methylpiperazin-1-yl)-1H-indol-2-yl)-1H-pyrazolo[3,4-b]pyridin-5-yl)pyridin-3-yl)butanamide]	4840		> 10000	2310	0					
FC1(F)CCN(Cc2cncc(-c3cnc4[nH]nc(-c5cc6ncccc6[nH]5)c4c3)c2)C1 [Compound 504, 5-(5-((3,3-Difluoropyrrolidin-1-yl)methyl)pyridin-3-yl)-3-(1H-pyrrolo[3,2-b]pyridin-2-yl)-1H-pyrazolo[3,4-b]pyridine]	113		116	> 10000		14.8				
CN(C)CCNc1cc(F)cc(-c2cccc3[nH]c(-c4n[nH]c5ncc(-c6cncc(CN7CCCCC7)c6)cc45)cc23)c1 [Compound 437, N^1-(3-Fluoro-5-(2-(5-(5-(piperidin-1-ylmethyl)pyridin-3-yl)-1H-pyrazolo[3,4-b]pyridin-3-yl)-1H-indol-4-yl)phenyl)-N^2,N^2-dimethylethane-1,2-diamine]	3860		> 10000	5440	43.2					
CN(C)Cc1cncc(-c2cnc3[nH]nc(-c4cc5c(-c6cc(F)cc(CNS(C)(=O)=O)c6)cccc5[nH]4)c3c2)c1 [Compound 463, N-(3-(2-(5-(5-((Dimethylamino)methyl)pyridin-3-yl)-1H-pyrazolo[3,4-b]pyridin-3-yl)-1H-indol-4-yl)-5-fluorobenzyl)methane sulfonamide]	1070		451	2030						
CN(C)CCNc1cc(F)cc(-c2cccc3[nH]c(-c4n[nH]c5ncc(-c6cncnc6)cc45)cc23)c1 [Compound 449, N^1-(3-Fluoro-5-(2-(5-(pyrimidin-5-yl)-1H-pyrazolo[3,4-b]pyridin-3-yl)-1H-indol-4-yl)phenyl)-N^2,N^2-dimethylethane-1,2-diamine]	1300		7	1160						
CN(C)c1cncc(-c2cnc3[nH]nc(-c4cc5c(N6CCCCC6)cccc5[nH]4)c3c2)c1 [Compound 151, N,N-Dimethyl-5-(3-(4-(piperidin-1-yl)-1H-indol-2-yl)-1H-pyrazolo[3,4-b]pyridin-5-yl)pyridin-3-amine]	5260		5250	1630						
O=C(Nc1cncc(-c2cnc3[nH]nc(-c4cc5c(N6CCCCC6)cccc5[nH]4)c3c2)c1)c1ccccc1 [Compound 155, N-(5-(3-(4-(Piperidin-1-yl)-1H-indol-2-yl)-1H-pyrazolo[3,4-b]pyridin-5-yl)pyridin-3-yl)benzamide]	> 10000	31	> 10000	5170	21.8					
CC(C)Nc1cncc(-c2cnc3[nH]nc(-c4cc5c(-c6cccnc6)cccc5[nH]4)c3c2)c1 [Compound 81, N-Isopropyl-5-(3-(4-(pyridin-3-yl)-1H-indol-2-yl)-1H-pyrazolo[3,4-b]pyridin-5-yl)pyridin-3-amine]	3700		1560	1410						
CN(C)CCNc1cc(F)cc(-c2cccc3[nH]c(-c4n[nH]c5ncc(-c6ccncc6)cc45)cc23)c1 [Compound 440]							4140	15	> 10000	0
CC(C)(C)C(=O)Nc1cncc(-c2cnc3[nH]nc(-c4cc5c(-c6cccnc6)cccc5[nH]4)c3c2)c1 [Compound 78, N-(5-(3-(4-(Pyridin-3-yl)-1H-indol-2-yl)-1H-pyrazolo[3,4-b]pyridin-5-yl)pyridin-3-yl)pivalamide]	1730		88	> 10000		24.2				
CN(C)CCNc1cc(F)cc(-c2cccc3[nH]c(-c4n[nH]c5ncc(-c6cncc(OC7CCCCC7)c6)cc45)cc23)c1 [Compound 785, N^1-(3-(2-(5-(5-(Cyclohexyloxy)pyridin-3-yl)-1H-pyrazolo[3,4-b]pyridin-3-yl)-1H-indol-4-yl)-5-fluorophenyl)-N^2,N^2-dimethylethane-1,2-diamine]	1640		1800	1240						
CN1CCN(c2cccc3[nH]c(-c4n[nH]c5ncc(-c6cncc(CN7CCCCC7)c6)cc45)cc23)CC1 [Compound 215, 3-(4-(4-Methylpiperazin-1-yl)-1H-indol-2-yl)-5-(5-(piperidin-1-ylmethyl)pyridin-3-yl)-1H-pyrazolo[3,4-b]pyridine]	3520		220	1760						
O=C(Nc1cncc(-c2cnc3[nH]nc(-c4cc5c(-c6ccccn6)cccc5[nH]4)c3c2)c1)c1ccccc1 [Compound 128, N-(5-(3-(4-(Pyridin-2-yl)-1H-indol-2-yl)-1H-pyrazolo[3,4-b]pyridin-5-yl)pyridin-3-yl)benzamide]	701		9	468						
c1cc(-c2ccncc2)c2cc(-c3n[nH]c4ncc(-c5ccncc5)cc34)[nH]c2c1 [Compound 111, 5-(Pyridin-4-yl)-3-(4-(pyridin-4-yl)-1H-indol-2-yl)-1H-pyrazolo[3,4-b]pyridine]	> 10000	36.4	4170	2770						
CN1CCN(c2cccc3[nH]c(-c4n[nH]c5ncc(-c6cncc(NC(=O)C7CCCC7)c6)cc45)cc23)CC1 [Compound 222, N-(5-(3-(4-(4-Methylpiperazin-1-yl)-1H-indol-2-yl)-1H-pyrazolo[3,4-b]pyridin-5-yl)pyridin-3-yl)cyclopentanecarboxamide]	828		98	790						
CC(C)(C)CC(=O)Nc1cncc(-c2cnc3[nH]nc(-c4cc5c(-c6ccccc6F)cccc5[nH]4)c3c2)c1 [Compound 61, N-(5-(3-(4-(2-Fluorophenyl)-1H-indol-2-yl)-1H-pyrazolo[3,4-b]pyridin-5-yl)pyridin-3-yl)-3,3-dimethylbutanamide]	> 10000	25.2	4640	4970						
c1ccc2[nH]c(-c3n[nH]c4ncc(-c5cncc(CN6CCCC6)c5)cc34)cc2c1 [Compound 240, 3-(1H-Indol-2-yl)-5-(5-(pyrrolidin-1-ylmethyl)pyridin-3-yl)-1H-pyrazolo[3,4-b]pyridine]	9320		821	859						
CS(=O)(=O)NCc1cc(F)cc(-c2cccc3[nH]c(-c4n[nH]c5ncc(-c6ccccn6)cc45)cc23)c1 [Compound 478, N-(3-Fluoro-5-(2-(5-(pyridin-2-yl)-1H-pyrazolo[3,4-b]pyridin-3-yl)-1H-indol-4-yl)benzyl)methanesulfonamide]	> 10000	22.6	690	2420						
O=C(Nc1cncc(-c2cnc3[nH]nc(-c4cc5c(-c6cccc(F)c6)cccc5[nH]4)c3c2)c1)C1CCCCC1 [Compound 19, N-(5-(3-(4-(3-Fluorophenyl)-1H-indol-2-yl)-1H-pyrazolo[3,4-b]pyridin-5-yl)pyridin-3-yl)cyclohexanecarboxamide]	> 10000	11.1	> 10000	> 10000	19.2	28.9				
CCCC(=O)Nc1cncc(-c2cnc3[nH]nc(-c4cc5c(-c6cccc(F)c6)cccc5[nH]4)c3c2)c1 [Compound 14, N-(5-(3-(4-(3-Fluorophenyl)-1H-indol-2-yl)-1H-pyrazolo[3,4-b]pyridin-5-yl)pyridin-3-yl)butyramide]	> 10000	9.9	> 10000	> 10000	20.3					
CCNCc1cncc(-c2cnc3[nH]nc(-c4cc5c(N6CCCCC6)cccc5[nH]4)c3c2)c1 [Compound 150, N-((5-(3-(4-(Piperidin-1-yl)-1H-indol-2-yl)-1H-pyrazolo[3,4-b]pyridin-5-yl)pyridin-3-yl)methyl)ethanamine]	2830		1460	2740						
CCCC(=O)Nc1cncc(-c2cnc3[nH]nc(-c4cc5ccccc5[nH]4)c3c2)c1 [Compound 243, N-(5-(3-(1H-Indol-2-yl)-1H-pyrazolo[3,4-b]pyridin-5-yl)pyridin-3-yl) butyramide]	632		2080	210						
